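Five concentrations, 48 hours, 96-well plates. GI50 marks 50% less growth. TGI marks complete inhibition of growth.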
What was measured:
Assay in all cases: NCI tumour cell line growth inhibition, 48 h
[1] = system: MOLT-4 leukemia
[2] = system: SK-MEL-28 melanoma
[3] = system: RPMI-8226 leukemia
[4] = system: T-47D breast
[5] = system: K-562 leukemia
[6] = system: UACC-62 melanoma
[7] = system: COLO 205 colon
[8] = system: U251 CNS
[9] = system: CCRF-CEM leukemia
[10] = system: RXF 393 renal

Structure (SMILES) | GI50 [1] | TGI [1] | GI50 [2] | TGI [2] | GI50 [3] | TGI [3] | GI50 [4] | TGI [4] | GI50 [5] | TGI [5] | GI50 [6] | TGI [6] | GI50 [7] | TGI [7] | GI50 [8] | TGI [8] | GI50 [9] | TGI [9] | TGI [10] | GI50 [10]
CN1c2ccccc2C(C)(C)C12C=Cc1cc(O)ccc1O2 (stereo unspecified) | 4.5 µM | > 100 µM | 3.94 µM | 15.5 µM | 1710 nM | 4.91 µM | 4 µM | 16.9 µM | 3.09 µM | > 100 µM | 2560 nM | 11.5 µM | 1900 nM | 3.88 µM | 3180 nM | 10.9 µM | 2870 nM | 10.2 µM |  | 
CCc1cccc(C(C)C)c1N1C(=O)C(=O)C(c2nc3ccccc3s2)C(=O)C1=O |  | 42.7 µM |  | > 50 µM |  | > 50 µM |  |  |  | > 50 µM |  | > 50 µM |  | > 50 µM |  | > 50 µM |  | > 42.1 µM | > 50 µM | 
C1CCN(c2nc(=[N+]3CCCCC3)ss2)CC1 |  | > 100 µM |  | > 100 µM |  | > 100 µM |  |  |  | > 100 µM |  | > 100 µM |  |  |  | > 100 µM |  | > 100 µM | > 100 µM | 
O=C(Nc1nc2ncn(CCNCc3ccccc3)c2c(=O)[nH]1)c1ccccc1 |  |  |  | > 100 µM |  | > 100 µM |  |  |  | > 100 µM |  | > 100 µM |  | > 100 µM |  | > 100 µM |  | > 100 µM | > 100 µM | 
CC1C[C@@H]2C(=O)NC(=O)[C@@H]2c2c1c1ccccc1n2C (stereo partly specified) |  | > 100 µM |  | > 100 µM |  | > 100 µM |  |  |  | > 100 µM |  | > 100 µM |  | > 100 µM |  | > 100 µM |  | > 100 µM | > 100 µM | 
O=C(Cn1ccnc1[N+](=O)[O-])c1ccc(F)cc1 |  | > 100 µM |  | > 100 µM |  | > 100 µM |  |  |  | > 100 µM |  | > 100 µM |  | > 100 µM |  | > 100 µM |  | > 100 µM | > 100 µM | 
CN(C)c1ccc(Nc2cc(-c3cccc(OC(F)(F)F)c3)nc3ccc(N4CCCC4)cc23)cc1 |  |  | 1.79 µM | 3.3 µM | 1870 nM | 4.48 µM |  |  |  |  | 1800 nM | 3.29 µM | 2560 nM | 9.02 µM | 1740 nM | 3.16 µM |  |  | 3.47 µM | 1660 nM
O=[N+]([O-])c1cccc(C2ON2C2CCCCC2)c1 (stereo unspecified) |  | 64.7 µM |  | > 100 µM |  | 7.98 µM |  |  |  | 60.3 µM |  | 48 µM |  | 32.6 µM |  | 14 µM |  | 36.7 µM |  | 
CC(C)(C)c1cc2c3c(c1)C(C(F)(F)F)(C(F)(F)F)O[Te]3(C)OC2(C(F)(F)F)C(F)(F)F |  | > 100 µM |  | > 100 µM |  | > 100 µM |  |  |  | > 100 µM |  | > 100 µM |  | > 100 µM |  | > 100 µM |  | > 100 µM | > 100 µM | 
NCCCNCCCCN(CCCN)/[N+]([O-])=N\O |  | > 100 µM |  | > 100 µM |  | > 100 µM |  |  |  | > 100 µM |  | > 100 µM |  | > 100 µM |  |  |  | > 100 µM | > 100 µM | 
S=c1cc(S)sc2c1c(=S)sc1nc3ccccn3c(=S)c12 |  | > 100 µM |  | > 100 µM |  | > 100 µM |  |  |  | > 100 µM |  | > 100 µM |  |  |  | > 100 µM |  | > 100 µM | > 100 µM | 
C[C@]1(CO)CCC[C@@]2(C)C1CC[C@H]1CC3C[C@]12CC[C@]3(C)O (stereo partly specified) |  | > 100 µM |  | > 100 µM |  | > 100 µM |  |  |  | > 100 µM |  | > 100 µM |  | > 100 µM |  | > 100 µM |  |  | > 100 µM | 
CN1CCN(c2ccc3nc(-c4ccc5nc(-c6ccc(OCCC(C)(C)C)cc6)[nH]c5c4)[nH]c3c2)CC1 | 3.12 µM | 10.7 µM | 3.03 µM | 9.43 µM | 2860 nM | 7.44 µM | 14.2 µM | 41.1 µM |  |  | 17300 nM | 40.1 µM | 12900 nM | 30 µM | 2160 nM | 3.81 µM | 2720 nM | 7.34 µM |  | 
Clc1ccc(C2SCc3nc4ccccc4n32)cc1Cl (stereo unspecified) |  | > 100 µM |  | 25.4 µM |  | 96.1 µM |  |  |  | > 100 µM |  | 27.1 µM |  | 38.3 µM |  | 30.8 µM |  | > 100 µM | 15.7 µM | 
O=CC[C@H]1CCc2ccccc2C12CCC(=O)CC2 |  | > 100 µM |  |  |  | > 100 µM |  |  |  | > 100 µM |  | > 100 µM |  | > 100 µM |  |  |  | > 100 µM |  | 
CCc1cccc(C(C)C)c1NC(=O)C(=O)C(CC(=O)Nc1ccc(Cl)c(Cl)c1)C(=O)OC (stereo unspecified) |  | > 100 µM |  | > 100 µM |  | > 100 µM |  |  |  | > 100 µM |  | 6.77 µM |  | > 100 µM |  | > 100 µM |  | > 100 µM | > 100 µM | 
C1=CC=C2NCCCNC3=CC=CC=CC3=NCCCN=C2C=C1 |  | > 100 µM |  | > 100 µM |  | > 100 µM |  |  |  | > 100 µM |  | > 100 µM |  | > 100 µM |  | > 100 µM |  | > 100 µM |  | 

Structure (SMILES) | GI50 [1] | TGI [1] | GI50 [2] | TGI [2] | GI50 [3] | TGI [3] | GI50 [4] | TGI [4] | GI50 [5] | TGI [5] | GI50 [6] | TGI [6] | GI50 [7] | TGI [7] | GI50 [8] | TGI [8] | GI50 [9] | TGI [9] | TGI [10] | GI50 [10]
COc1cc(OC)c(C2CC=Cc3c(OC)cc(OC)c(OC)c32)cc1OC (stereo unspecified) |  | > 100 µM |  | > 100 µM |  | > 100 µM |  |  |  | > 100 µM |  | > 100 µM |  | > 100 µM |  | > 100 µM |  | > 100 µM | > 100 µM | 
O=C(CC1(O)C(=O)Nc2c(Cl)cc(Cl)cc21)c1cccc2ccccc12 (stereo unspecified) |  | 66.9 µM |  | 34.1 µM |  | 47.4 µM |  |  |  | 36.6 µM |  | 28.9 µM |  | 31.4 µM |  | 29.2 µM |  | 41.3 µM | 37.1 µM | 
COCCCNC(=O)CC(=O)NCCCOC |  | > 100 µM |  | > 100 µM |  | > 100 µM |  |  |  | > 100 µM |  | > 100 µM |  | > 100 µM |  | > 100 µM |  | > 100 µM | > 100 µM | 
CCC(=O)c1c(NOC2OC(COC(C)=O)C(OC(C)=O)C(OC(C)=O)C2OC(C)=O)nc(OC)n(C)c1=O (stereo unspecified) |  | > 100 µM |  | > 100 µM |  |  |  |  |  | > 100 µM |  | > 100 µM |  | > 100 µM |  | > 100 µM |  | > 100 µM | > 100 µM | 
CC(=O)c1ccc(NC(=O)C(=O)Nn2c(=S)[nH]c3ccccc3c2=O)cc1 |  | > 100 µM |  | > 100 µM |  | > 100 µM |  |  |  | > 100 µM |  | > 100 µM |  | > 100 µM |  | > 100 µM |  |  | > 100 µM | 
C=C(Br)N(CC)CC |  | > 100 µM |  | > 100 µM |  | > 100 µM |  |  |  | > 100 µM |  | > 100 µM |  | > 100 µM |  | > 100 µM |  | > 100 µM | > 100 µM | 
Fc1ccccc1C1CC(c2ccc3ccccc3c2)=Nc2ccccc2S1 (stereo unspecified) |  | > 100 µM |  | > 100 µM |  |  |  |  |  |  |  | > 100 µM |  | > 100 µM |  | > 100 µM |  | > 100 µM | > 100 µM | 
COC1OC(COCc2ccc(Cl)cc2)C(OCc2ccc(Cl)cc2)C1N=[N+]=[N-] (stereo unspecified) |  | > 100 µM |  | > 100 µM |  | > 100 µM |  |  |  | > 100 µM |  | 75.7 µM |  | > 100 µM |  | > 100 µM |  |  | > 100 µM | 
CCCCCCCCCCCCCP(=O)(O)OCC |  |  |  | > 100 µM |  |  |  |  |  |  |  | > 100 µM |  | > 100 µM |  | > 100 µM |  | > 100 µM | > 100 µM | 
O=C1C2C3C=CC(C2C(=O)N1COP(=O)(O)O)C1C2C(=O)N(COP(=O)(O)O)C(=O)C2C31 (stereo unspecified) |  | > 100 µM |  | > 100 µM |  | > 68.5 µM |  |  |  | > 100 µM |  | > 100 µM |  | > 65 µM |  | > 100 µM |  | > 60.7 µM | > 100 µM | 
O=C(Cc1nc2ccccc2s1)Nc1cccc(C(F)(F)F)c1 |  | 25.8 µM |  | 28.8 µM |  | 28.7 µM |  |  |  | 29.8 µM |  | 25.4 µM |  | 30.7 µM |  |  |  | 4.79 µM | 32.3 µM | 
CN(C)CCNC(=O)c1cccc2c1nc(-c1ccccc1)c1ccccc12 |  | 2.16 µM |  | 21.3 µM |  |  |  |  |  | 6.32 µM |  | 24.4 µM |  | 15.3 µM |  | 18.4 µM |  | 10.1 µM | 9.43 µM | 
O=C(CCC(=O)C(C(=O)c1ccccc1)c1ccccc1)Nc1cccc(C(F)(F)F)c1 (stereo unspecified) |  | > 100 µM |  |  |  | > 100 µM |  |  |  | > 100 µM |  | > 100 µM |  | > 100 µM |  | > 100 µM |  | > 100 µM |  | 
Cc1ccc(S(=O)(=O)OCC23CCC(CC2)C2CC23)cc1 (stereo unspecified) |  | > 100 µM |  | > 100 µM |  | 87.8 µM |  |  |  | > 100 µM |  | > 100 µM |  | > 100 µM |  | > 100 µM |  | > 100 µM |  | 
CC1(C)Cc2cc(C(=O)O)c3c(c2C1=O)COCC3 |  | > 100 µM |  |  |  | > 100 µM |  |  |  | > 100 µM |  | > 100 µM |  | > 100 µM |  | > 100 µM |  | > 100 µM | > 100 µM | 
CS(=O)(=O)N(N(CCCl)S(=O)(=O)c1ccccc1)S(C)(=O)=O |  | > 100 µM |  | > 100 µM |  | > 100 µM |  |  |  | > 100 µM |  | > 100 µM |  | > 100 µM |  | > 100 µM |  | > 100 µM | > 100 µM | 
COC(=O)CCC(=O)CC(=O)C(=O)Nc1c(Cl)cc([N+](=O)[O-])cc1Cl |  | > 100 µM |  | > 100 µM |  | 88.1 µM |  |  |  | > 100 µM |  | > 100 µM |  | > 100 µM |  | > 100 µM |  | > 100 µM | > 100 µM | 
